{"source": "patent US9738634B2", "about": "“Heterocyclic amide compound and herbicide” (SYNGENTA PARTICIPATIONS AG, priority 2013, dated 2017)", "assay_type_in_all_cases": "in vivo", "key": {"barnyard grass [1]": {"test_system": "barnyard grass", "assay": "Test Example 1: weedkilling efficacy, preemergent weed treatment in the submerged state; A: barnyard grass", "settings": "treatment dosage 252 g/ha", "method_in_brief": "(§1)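 Alluvial soil in Wagner pots flooded to 4 cm; barnyard grass, bulrush and oval-leafed pondweed seeds sown, then 2.5-leaf rice seedlings transplanted. Same day, emulsified compound diluted in water to set g/ha dosages and applied to water surface; greenhouse 25–30 °C, effect scored by criteria after 3 weeks.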"}, "bulrush [2]": {"test_system": "bulrush", "assay": "Test Example 1: weedkilling efficacy, preemergent weed treatment in the submerged state; B: bulrush", "settings": "treatment dosage 252 g/ha", "method_in_brief": "as §1"}, "oval-leafed pondweed [3]": {"test_system": "oval-leafed pondweed", "assay": "Test Example 1: weedkilling efficacy, preemergent weed treatment in the submerged state; C: oval-leafed pondweed", "settings": "treatment dosage 252 g/ha", "method_in_brief": "as §1"}, "transplanted rice": {"test_system": "transplanted rice", "assay": "Test Example 1: preemergent weed treatment in the submerged state, effect on crop; a: transplanted rice", "settings": "treatment dosage 252 g/ha", "method_in_brief": "as §1"}, "barnyard grass [4]": {"test_system": "barnyard grass", "assay": "Test Example 2: weedkilling efficacy, growth period weed treatment in the submerged state; A: barnyard grass", "settings": "treatment dosage 252 g/ha", "method_in_brief": "(§2)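 First, alluvial soil in pots is flooded to 4 cm and mixed seed is sown. Next, plants grow in a greenhouse at 25 to 30° C until the 1-2 leaf stage. Then diluted emulsion is applied onto the water surface at the given g/ha rate, and injury is assessed after 3 weeks.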"}, "bulrush [5]": {"test_system": "bulrush", "assay": "Test Example 2: weedkilling efficacy, growth period weed treatment in the submerged state; B: bulrush", "settings": "treatment dosage 252 g/ha", "method_in_brief": "as §2"}, "oval-leafed pondweed [6]": {"test_system": "oval-leafed pondweed", "assay": "Test Example 2: weedkilling efficacy, growth period weed treatment in the submerged state; C: oval-leafed pondweed", "settings": "treatment dosage 252 g/ha", "method_in_brief": "as §2"}, "crabgrass [7]": {"test_system": "crabgrass", "assay": "Test Example 3: weedkilling efficacy through soil treatment; D: crabgrass", "settings": "treatment dosage 315 g/ha", "method_in_brief": "(§3)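 Crop and weed responses were judged three weeks after a uniform surface spray of the water-diluted emulsion at the given g/ha rate. Seeds sat beneath about 1.5 cm of sterilized diluvial soil, and boxes stood in a greenhouse at 25 to 30° C.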"}, "green foxtail [8]": {"test_system": "green foxtail", "assay": "Test Example 3: weedkilling efficacy through soil treatment; E: green foxtail", "settings": "treatment dosage 315 g/ha", "method_in_brief": "as §3"}, "wild oat": {"test_system": "wild oat", "assay": "Test Example 3: weedkilling efficacy through soil treatment; G: wild oat", "settings": "treatment dosage 315 g/ha", "method_in_brief": "as §3"}, "black-grass [9]": {"test_system": "black-grass", "assay": "Test Example 3: weedkilling efficacy through soil treatment; H: black-grass", "settings": "treatment dosage 315 g/ha", "method_in_brief": "as §3"}, "Italian ryegrass [10]": {"test_system": "Italian ryegrass", "assay": "Test Example 3: weedkilling efficacy through soil treatment; I: Italian ryegrass", "settings": "treatment dosage 315 g/ha", "method_in_brief": "as §3"}, "Indian mallow [11]": {"test_system": "Indian mallow", "assay": "Test Example 3: weedkilling efficacy through soil treatment; K: Indian mallow", "settings": "treatment dosage 315 g/ha", "method_in_brief": "as §3"}, "redroot pigweed [12]": {"test_system": "redroot pigweed", "assay": "Test Example 3: weedkilling efficacy through soil treatment; L: redroot pigweed", "settings": "treatment dosage 315 g/ha", "method_in_brief": "as §3"}, "fig-leafed goosefoot [13]": {"test_system": "fig-leafed goosefoot", "assay": "Test Example 3: weedkilling efficacy through soil treatment; M: fig-leafed goosefoot", "settings": "treatment dosage 315 g/ha", "method_in_brief": "as §3"}, "chickweed [14]": {"test_system": "chickweed", "assay": "Test Example 3: weedkilling efficacy through soil treatment; N: chickweed", "settings": "treatment dosage 315 g/ha", "method_in_brief": "as §3"}, "birds-eye speedwell [15]": {"test_system": "birds-eye speedwell", "assay": "Test Example 3: weedkilling efficacy through soil treatment; p: birds-eye speedwell", "settings": "treatment dosage 315 g/ha", "method_in_brief": "as §3"}, "directly sown rice [16]": {"test_system": "directly sown rice", "assay": "Test Example 3: soil treatment, effect on crop; b: directly sown rice", "settings": "treatment dosage 315 g/ha", "method_in_brief": "as §3"}, "corn [17]": {"test_system": "corn", "assay": "Test Example 3: soil treatment, effect on crop; c: corn", "settings": "treatment dosage 315 g/ha", "method_in_brief": "as §3"}, "soybean [18]": {"test_system": "soybean", "assay": "Test Example 3: soil treatment, effect on crop; d: soybean", "settings": "treatment dosage 315 g/ha", "method_in_brief": "as §3"}, "wheat [19]": {"test_system": "wheat", "assay": "Test Example 3: soil treatment, effect on crop; e: wheat", "settings": "treatment dosage 315 g/ha", "method_in_brief": "as §3"}, "beet [20]": {"test_system": "beet", "assay": "Test Example 3: soil treatment, effect on crop; f: beet", "settings": "treatment dosage 315 g/ha", "method_in_brief": "as §3"}, "crabgrass [21]": {"test_system": "crabgrass", "assay": "Test Example 4: weedkilling efficacy by foliar treatment; D: crabgrass", "settings": "treatment dosage 315 g/ha", "method_in_brief": "(§4)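 Seeds are spot-sown into sterilized diluvial soil and covered with about 1.5 cm of soil. After 14 days' greenhouse growth at 25 to 30° C, plants are sprayed on stems and leaves with diluted emulsion at the stated g/ha rate, then scored at 3 weeks.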"}, "green foxtail [22]": {"test_system": "green foxtail", "assay": "Test Example 4: weedkilling efficacy by foliar treatment; E: green foxtail", "settings": "treatment dosage 315 g/ha", "method_in_brief": "as §4"}, "black-grass [23]": {"test_system": "black-grass", "assay": "Test Example 4: weedkilling efficacy by foliar treatment; H: black-grass", "settings": "treatment dosage 315 g/ha", "method_in_brief": "as §4"}, "Italian ryegrass [24]": {"test_system": "Italian ryegrass", "assay": "Test Example 4: weedkilling efficacy by foliar treatment; I: Italian ryegrass", "settings": "treatment dosage 315 g/ha", "method_in_brief": "as §4"}, "Indian mallow [25]": {"test_system": "Indian mallow", "assay": "Test Example 4: weedkilling efficacy by foliar treatment; K: Indian mallow", "settings": "treatment dosage 315 g/ha", "method_in_brief": "as §4"}, "redroot pigweed [26]": {"test_system": "redroot pigweed", "assay": "Test Example 4: weedkilling efficacy by foliar treatment; L: redroot pigweed", "settings": "treatment dosage 315 g/ha", "method_in_brief": "as §4"}, "fig-leafed goosefoot [27]": {"test_system": "fig-leafed goosefoot", "assay": "Test Example 4: weedkilling efficacy by foliar treatment; M: fig-leafed goosefoot", "settings": "treatment dosage 315 g/ha", "method_in_brief": "as §4"}, "chickweed [28]": {"test_system": "chickweed", "assay": "Test Example 4: weedkilling efficacy by foliar treatment; N: chickweed", "settings": "treatment dosage 315 g/ha", "method_in_brief": "as §4"}, "catchweed": {"test_system": "catchweed", "assay": "Test Example 4: weedkilling efficacy by foliar treatment; O: catchweed", "settings": "treatment dosage 315 g/ha", "method_in_brief": "as §4"}, "birds-eye speedwell [29]": {"test_system": "birds-eye speedwell", "assay": "Test Example 4: weedkilling efficacy by foliar treatment; p: birds-eye speedwell", "settings": "treatment dosage 315 g/ha", "method_in_brief": "as §4"}, "directly sown rice [30]": {"test_system": "directly sown rice", "assay": "Test Example 4: foliar treatment, effect on crop; b: directly sown rice", "settings": "treatment dosage 315 g/ha", "method_in_brief": "as §4"}, "corn [31]": {"test_system": "corn", "assay": "Test Example 4: foliar treatment, effect on crop; c: corn", "settings": "treatment dosage 315 g/ha", "method_in_brief": "as §4"}, "soybean [32]": {"test_system": "soybean", "assay": "Test Example 4: foliar treatment, effect on crop; d: soybean", "settings": "treatment dosage 315 g/ha", "method_in_brief": "as §4"}, "wheat [33]": {"test_system": "wheat", "assay": "Test Example 4: foliar treatment, effect on crop; e: wheat", "settings": "treatment dosage 315 g/ha", "method_in_brief": "as §4"}, "beet [34]": {"test_system": "beet", "assay": "Test Example 4: foliar treatment, effect on crop; f: beet", "settings": "treatment dosage 315 g/ha", "method_in_brief": "as §4"}}}
{"smiles": "CC1=C(c2ccsc2)C(=O)N(C(C)(C)C(=O)Nc2cccc(Br)n2)CO1", "note": "[B-2-06]", "values": [{"measurement": "A (barnyard grass) weedkilling efficacy grade", "setting": "barnyard grass [1]", "value": "5 (weed kill ratio 90% or more, (practically complete withering))"}, {"measurement": "B (bulrush) weedkilling efficacy grade", "setting": "bulrush [2]", "value": "5 (weed kill ratio 90% or more, (practically complete withering))"}, {"measurement": "C (oval-leafed pondweed) weedkilling efficacy grade", "setting": "oval-leafed pondweed [3]", "value": "5 (weed kill ratio 90% or more, (practically complete withering))"}, {"measurement": "a (transplanted rice) effect on crop grade", "setting": "transplanted rice", "value": "4 (weed kill ratio 70% or more, less than 90%)"}, {"measurement": "A (barnyard grass) weedkilling efficacy grade", "setting": "barnyard grass [4]", "value": "5 (weed kill ratio 90% or more, (practically complete withering))"}, {"measurement": "B (bulrush) weedkilling efficacy grade", "setting": "bulrush [5]", "value": "5 (weed kill ratio 90% or more, (practically complete withering))"}, {"measurement": "C (oval-leafed pondweed) weedkilling efficacy grade", "setting": "oval-leafed pondweed [6]", "value": "5 (weed kill ratio 90% or more, (practically complete withering))"}, {"measurement": "D (crabgrass) weedkilling efficacy grade", "setting": "crabgrass [7]", "value": "5 (weed kill ratio 90% or more, (practically complete withering))"}, {"measurement": "E (green foxtail) weedkilling efficacy grade", "setting": "green foxtail [8]", "value": "5 (weed kill ratio 90% or more, (practically complete withering))"}, {"measurement": "G (wild oat) weedkilling efficacy grade", "setting": "wild oat", "value": "5 (weed kill ratio 90% or more, (practically complete withering))"}, {"measurement": "H (black-grass) weedkilling efficacy grade", "setting": "black-grass [9]", "value": "5 (weed kill ratio 90% or more, (practically complete withering))"}, {"measurement": "I (Italian ryegrass) weedkilling efficacy grade", "setting": "Italian ryegrass [10]", "value": "5 (weed kill ratio 90% or more, (practically complete withering))"}, {"measurement": "K (Indian mallow) weedkilling efficacy grade", "setting": "Indian mallow [11]", "value": "4 (weed kill ratio 70% or more, less than 90%)"}, {"measurement": "L (redroot pigweed) weedkilling efficacy grade", "setting": "redroot pigweed [12]", "value": "5 (weed kill ratio 90% or more, (practically complete withering))"}, {"measurement": "M (fig-leafed goosefoot) weedkilling efficacy grade", "setting": "fig-leafed goosefoot [13]", "value": "5 (weed kill ratio 90% or more, (practically complete withering))"}, {"measurement": "N (chickweed) weedkilling efficacy grade", "setting": "chickweed [14]", "value": "4 (weed kill ratio 70% or more, less than 90%)"}, {"measurement": "P (birds-eye speedwell) weedkilling efficacy grade", "setting": "birds-eye speedwell [15]", "value": "5 (weed kill ratio 90% or more, (practically complete withering))"}, {"measurement": "b (directly sown rice) effect on crop grade", "setting": "directly sown rice [16]", "value": "5 (weed kill ratio 90% or more, (practically complete withering))"}, {"measurement": "c (corn) effect on crop grade", "setting": "corn [17]", "value": "0 (weed kill ratio 5% or less (practically no effect))"}, {"measurement": "d (soybean) effect on crop grade", "setting": "soybean [18]", "value": "2 (weed kill ratio 20% or more, less than 40%)"}, {"measurement": "e (wheat) effect on crop grade", "setting": "wheat [19]", "value": "5 (weed kill ratio 90% or more, (practically complete withering))"}, {"measurement": "f (beet) effect on crop grade", "setting": "beet [20]", "value": "5 (weed kill ratio 90% or more, (practically complete withering))"}, {"measurement": "D (crabgrass) weedkilling efficacy grade", "setting": "crabgrass [21]", "value": "5 (weed kill ratio 90% or more, (practically complete withering))"}, {"measurement": "E (green foxtail) weedkilling efficacy grade", "setting": "green foxtail [22]", "value": "5 (weed kill ratio 90% or more, (practically complete withering))"}, {"measurement": "H (black-grass) weedkilling efficacy grade", "setting": "black-grass [23]", "value": "5 (weed kill ratio 90% or more, (practically complete withering))"}, {"measurement": "I (Italian ryegrass) weedkilling efficacy grade", "setting": "Italian ryegrass [24]", "value": "5 (weed kill ratio 90% or more, (practically complete withering))"}, {"measurement": "K (Indian mallow) weedkilling efficacy grade", "setting": "Indian mallow [25]", "value": "3 (weed kill ratio 40% or more, less than 70%)"}, {"measurement": "L (redroot pigweed) weedkilling efficacy grade", "setting": "redroot pigweed [26]", "value": "5 (weed kill ratio 90% or more, (practically complete withering))"}, {"measurement": "M (fig-leafed goosefoot) weedkilling efficacy grade", "setting": "fig-leafed goosefoot [27]", "value": "4 (weed kill ratio 70% or more, less than 90%)"}, {"measurement": "N (chickweed) weedkilling efficacy grade", "setting": "chickweed [28]", "value": "4 (weed kill ratio 70% or more, less than 90%)"}, {"measurement": "O (catchweed) weedkilling efficacy grade", "setting": "catchweed", "value": "4 (weed kill ratio 70% or more, less than 90%)"}, {"measurement": "P (birds-eye speedwell) weedkilling efficacy grade", "setting": "birds-eye speedwell [29]", "value": "5 (weed kill ratio 90% or more, (practically complete withering))"}, {"measurement": "b (directly sown rice) effect on crop grade", "setting": "directly sown rice [30]", "value": "5 (weed kill ratio 90% or more, (practically complete withering))"}, {"measurement": "c (corn) effect on crop grade", "setting": "corn [31]", "value": "1 (weed kill ratio 5% or more, less than 20%)"}, {"measurement": "d (soybean) effect on crop grade", "setting": "soybean [32]", "value": "4 (weed kill ratio 70% or more, less than 90%)"}, {"measurement": "e (wheat) effect on crop grade", "setting": "wheat [33]", "value": "4 (weed kill ratio 70% or more, less than 90%)"}, {"measurement": "f (beet) effect on crop grade", "setting": "beet [34]", "value": "4 (weed kill ratio 70% or more, less than 90%)"}]}
